Measurements from article PMC11620517, “Novel hydrazone compounds with broad-spectrum antiplasmodial activity and synergistic interactions with antimalarial drugs” (Antimicrobial Agents and Chemotherapy, 2024).
Where two headings read alike, the source gives them in different places.

Columns and labels:
[1] = biological target: T1, recombinant P. falciparum GST (Plasmodium falciparum, UniProt Q8ILQ7); assay: GST inhibition assay (CDNB); assay type: biochemical; conditions: 6-point 1–50 µM
T1 construct: The open reading frames encoding PfGST, PbGST, and hGST were gene-synthesized; TEV cleavage site (C); Avitag (C); purchased InterRayBio, LLC; host or cells: E. coli BL21 (DE3)
T1 sequence (Q8ILQ7 1-211): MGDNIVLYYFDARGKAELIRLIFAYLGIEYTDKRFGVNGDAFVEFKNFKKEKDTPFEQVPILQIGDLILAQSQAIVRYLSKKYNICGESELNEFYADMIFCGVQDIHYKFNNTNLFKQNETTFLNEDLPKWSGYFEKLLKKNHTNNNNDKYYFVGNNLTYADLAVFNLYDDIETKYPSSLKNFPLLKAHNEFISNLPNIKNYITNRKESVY
Description: (§1) Enzymatic activities of recombinant GSTs were determined spectrophotometrically using the chromogenic substrate 1-chloro-2,4-dinitrobenzene (CDNB). Recombinant GST (0.35 mg/mL) was mixed with 1 mM CDNB in 100 mM HEPES. Stock solutions (10 mM) of the CB compounds and hemin were prepared in 100% dimethyl sulfoxide (DMSO) and then diluted at 0.5% DMSO ([14]). Each inhibitor has six concentrations ranging from 1 to 50 µM. The reaction was initiated with 1 mM glutathione (GSH) after 15 minutes. Absorbance change at 340 nm was measured for 1 hour. The slope was converted to micromole per minute using Beer’s equation and the extinction coefficient for the product S-(2,4-dinitrophenyl)glutathione (ε340 nm = 9.6 mM^–1 cm^–1) ([14]). The assay was validated using human placenta GST (#G8642) as a positive control.

human GST = biological target: T2, human GST (Homo sapiens, UniProt P08263); assay: GST inhibition assay (CDNB); assay type: biochemical; conditions: 6-point 1–50 µM
T2 construct: The open reading frames encoding PfGST, PbGST, and hGST were gene-synthesized; TEV cleavage site (C); Avitag (C); purchased InterRayBio, LLC; host or cells: E. coli BL21 (DE3)
T2 sequence (P08263 1-222): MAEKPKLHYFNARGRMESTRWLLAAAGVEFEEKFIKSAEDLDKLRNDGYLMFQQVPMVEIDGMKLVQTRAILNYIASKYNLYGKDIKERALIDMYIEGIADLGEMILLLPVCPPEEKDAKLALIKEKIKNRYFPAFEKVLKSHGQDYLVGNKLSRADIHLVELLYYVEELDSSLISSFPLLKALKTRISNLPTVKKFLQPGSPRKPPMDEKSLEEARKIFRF
Description: as §1

[2] = test system: P. falciparum oocyst formation in Anopheles stephensi mosquitoes; assay: P. falciparum oocyst inhibition assay (SMFA); assay type: in vivo, Plasmodium falciparum; conditions: for Median (oocysts) / Median I % / Prevalence % / Prevalence I %: pooled from two representative experiments
Description: As previously described, P. falciparum infections were performed using SMFA with NF54 gametocyte cultures diluted to 0.3% stage V gametocytemia ([62]). Infected blood (O+ human 45% hematocrit in serum) was offered to mosquitoes for 30 minutes, and engorged mosquitoes were maintained on a 10% corn syrup solution supplemented by four concentrations of CB compounds (1, 2.5, 5, and 10 µM) at […] ([63]), with DMSO serving as a control. Eight days post-infection, mosquito midguts were dissected and stained with 0.2% mercurochrome for 30 minutes, and oocysts were quantified under a light microscope ([63]).

P. falciparum TM91c235 = assay: Malaria SYBR Green I-Based Fluorescence (MSF) assay, blood stages; assay type: cell-based; conditions: Plasmodium falciparum, 72 h, read-out: IC50 (µM) (±SD) for strain: TM91c235
Description: (§2) MSF assays were performed in vitro with four P. falciparum strains: D6 (drug sensitive), TM91-C235 (multidrug resistant), W2 (CQ resistant), and C2B (multidrug resistant against ATQ). Parasite strains were kept continuously in long-term cultures as described ([22]). Pre-dosed 384-well plates containing […] serial dilutions of CB compounds (0.0098–20 µM) were prepared using the Tecan Freedom Evo liquid handling system (Tecan USA, Inc., Durham, NC, USA) and were stored at 4°C. A CQ control plate (2,000 ng/mL) was included in each run. Based on modifications of previous methods ([17], [55]), late-ring or early-trophozoite stages were cultured in pre-dosed plates with 0.3% parasitemia and 2% hematocrit. Cultures were incubated for 72 hours at 37°C in a controlled atmosphere of 5% CO2, 5% O2, and 90% N2. Lysis buffer, consisting of 20 mM Tris HCl, 5 mM EDTA, 1.6% Triton X, 0.016% saponin, and SYBR Green I dye at a 20X concentration (Invitrogen #S-7567), was added to the plates for a final 10X SYBR Green concentration. Plates containing cell culture media and lysis buffer were incubated in the dark at 25°C for 24 hours, and the relative fluorescence units (RFU) were measured using the Tecan Genios Plus (Tecan USA, Inc.).

P. falciparum C2B = assay: as above; assay type: cell-based; conditions: Plasmodium falciparum, 72 h, read-out: IC50 (µM) (±SD) for strain: C2B
Description: as §2

P. falciparum W2 = assay: as above; assay type: cell-based; conditions: Plasmodium falciparum, W2, 72 h, read-out: IC50 (µM) (±SD) for strain: W2
Description: as §2

P. falciparum D6 = assay: as above; assay type: cell-based; conditions: Plasmodium falciparum, D6, 72 h, read-out: IC50 (µM) (±SD) for strain: D6
Description: as §2

Structure (SMILES): O=C(N/N=C/c1c(O)ccc2ccccc12)c1cc([N+](=O)[O-])cc([N+](=O)[O-])c1 [CB-61]
- GST inhibition [1]: did not inhibit
- GST inhibition (human GST): did not inhibit
- Median oocyst # ([2]; 1 μM compound): 1
- Mean oocyst # excluding zeros (Range) ([2]; 1 μM compound, P. falciparum midgut infection in An. stephensi mosquitoes): 30 (0-109)
- Prevalence ([2]; 1 μM compound, infection prevalence in mosquitoes): 60
- Median (oocysts) ([2]; 1 µM): 1
- Median I % ([2]; 1 µM): 83%
- Prevalence % ([2]; 1 µM): 59%
- Prevalence I % ([2]; 1 µM): 31%
- Median oocyst # ([2]; 2.5 μM compound): 1
- Mean oocyst # excluding zeros (Range) ([2]; 2.5 μM compound, P. falciparum midgut infection in An. stephensi mosquitoes): 20 (0-65)
- Prevalence ([2]; 2.5 μM compound, infection prevalence in mosquitoes): 55
- Median (oocysts) ([2]; 2.5 µM): 1
- Median I % ([2]; 2.5 µM): 83%
- Prevalence % ([2]; 2.5 µM): 55%
- Prevalence I % ([2]; 2.5 µM): 36%
- % inhibition (median) ([2]; 2.5 μM, single experiments): 62%
- Median oocyst # ([2]; 5 μM compound): 1
- Mean oocyst # excluding zeros (Range) ([2]; 5 μM compound, P. falciparum midgut infection in An. stephensi mosquitoes): 20 (0-68)
- Prevalence ([2]; 5 μM compound, infection prevalence in mosquitoes): 55
- Median (oocysts) ([2]; 5 µM): 1
- Median I % ([2]; 5 µM): 83%
- Prevalence % ([2]; 5 µM): 55%
- Prevalence I % ([2]; 5 µM): 36%
- % inhibition (median) ([2]; 5 μM, single experiments): 58%
- Mean oocyst # excluding zeros (Range) ([2]; 7.5 μM, single experiments): 15 (0-53)
- Median oocyst # ([2]; 7.5 μM, single experiments): 2.5
- Prevalence ([2]; 7.5 μM, single experiments): 75
- Median oocyst # ([2]; 10 μM compound): 0
- Mean oocyst # excluding zeros (Range) ([2]; 10 μM compound, P. falciparum midgut infection in An. stephensi mosquitoes): 7 (0-30)
- Prevalence ([2]; 10 μM compound, infection prevalence in mosquitoes): 46
- Median (oocysts) ([2]; 10 µM): 0
- Median I % ([2]; 10 µM): 100%
- Prevalence % ([2]; 10 µM): 46%
- Prevalence I % ([2]; 10 µM): 47%
- Mean oocyst # excluding zeros (Range) ([2]; 25 μM, single experiments): 1 (0-2)
- Median oocyst # ([2]; 25 μM, single experiments): 0
- Prevalence ([2]; 25 μM, single experiments): 18
- Mean oocyst # excluding zeros (Range) ([2]; 50 μM, single experiments): 1 (0-2)
- Median oocyst # ([2]; 50 μM, single experiments): 0
- Prevalence ([2]; 50 μM, single experiments): 15
- oocyst formation inhibition ([2]; 1 to 10 µM, midguts dissected 8 days after feeding): inhibited midgut oocyst formation in a dose-dependent manner
- inhibition at 2.5 µM ([2]; read-out: % inhibition (mean), 2.5 μM compound, oocyst number vs DMSO control): 23%
- inhibition at 5 µM ([2]; read-out: % inhibition (mean), 5 μM compound, oocyst number vs DMSO control): 23%
- inhibition at 7.5 µM ([2]; read-out: % inhibition (mean), 7.5 μM, single experiments): 29%
- inhibition at 10 µM ([2]; read-out: % inhibition (mean), 10 μM compound, oocyst number vs DMSO control): 72%
- inhibition at 25 µM ([2]; read-out: % inhibition (mean), 25 μM, single experiments): 48%
- inhibition at 50 µM ([2]; read-out: % inhibition (mean), 50 μM, single experiments): 49%
- inhibition at 1 µM ([2]; read-out: % inhibition (median), 1 μM compound, oocyst number vs DMSO control): 83%
- inhibition at 2.5 µM ([2]; read-out: % inhibition (median), 2.5 μM compound, oocyst number vs DMSO control): 83%
- inhibition at 5 µM ([2]; read-out: % inhibition (median), 5 μM compound, oocyst number vs DMSO control): 83%
- inhibition at 7.5 µM ([2]; read-out: % inhibition (median), 7.5 μM, single experiments): 79%
- inhibition at 10 µM ([2]; read-out: % inhibition (median), 10 μM compound, oocyst number vs DMSO control): 100%
- inhibition at 25 µM ([2]; read-out: % inhibition (median), 25 μM, single experiments): 100%
- inhibition at 50 µM ([2]; read-out: % inhibition (median), 50 μM, single experiments): 100%
- inhibition at 1 µM ([2]; read-out: % inhibition (prevalence), 1 μM compound, vs DMSO control): 31%
- inhibition at 2.5 µM ([2]; read-out: % inhibition (prevalence), 2.5 μM compound, vs DMSO control): 36%
- inhibition at 5 µM ([2]; read-out: % inhibition (prevalence), 5 μM compound, vs DMSO control): 36%
- inhibition at 7.5 µM ([2]; read-out: % inhibition (prevalence), 7.5 μM, single experiments): 21%
- inhibition at 10 µM ([2]; read-out: % inhibition (prevalence), 10 μM compound, vs DMSO control): 47%
- inhibition at 25 µM ([2]; read-out: % inhibition (prevalence), 25 μM, single experiments): 74%
- inhibition at 50 µM ([2]; read-out: % inhibition (prevalence), 50 μM, single experiments): 78%
- IC50 (P. falciparum TM91c235): 0.26 µM
- IC50 (P. falciparum C2B): 0.3 µM
- IC50 (P. falciparum W2): 0.22 µM
- IC50 (P. falciparum D6): 0.2 µM
